The test system of one assay is tgfb1 mRNA. In words: tgfb1 mRNA level by quantitative PCR in human aortic vascular smooth muscle cells. It counts as cell-based. The following applies: 24 hrs, normalised to TBP, vs vehicle. The procedure:
(1995) Cardiovasc. Res. 29:848-55). […] The cells were then incubated for either 24 hrs or 72 hrs depending on the experiment. All treatment conditions were established in triplicate. The level of mRNA for tgfb1, tgfb2 and tgfb3 were estimated by quantitative PCR. The media was removed and RNA was carefully prepared using the Ambion RNAqueous4PCR kit (Ambion#1914) in accordance with the manufacturer's instructions. The purity of the RNA and the quantity was assessed spectrophotometrically. […] This analysis results in both a gel-like image as well as electrophoretic data. Indications of RNA degradation are: (a) decreasing ratio of ribosomal bands (b) additional peaks bellow the ribosomal bands (c) Decrease in overall RNA signal (d) shift towards shorter fragments. All the mRNA samples used in the experiments presented here passed this RNA quality control step. Next, the RNA was converted to cDNA using the ABI High-Capacity cDNA Archive Kit, in accordance with manufacturer's instructions. The qPCR assay was then set up as follow: all cDNA samples were diluted to 180 μl total volume using Molecular grade water. Samples were vortexed to ensure thorough mixing. cDNA was aliquoted into ABI 384 well plates using a multi-channel pipette, 4.5 μl of sample into each well. Samples were assayed in triplicate (that is, nine determinations in total were made for each condition, being three separate assays on each of three replicate culture wells). The assay mix and Universal Master Mix were prepared and aliquoted across the 384 well plates 5.5 μl in each well, using a single channel pipette. The final composition of each reaction (10 μl) being: Primer/Probe assay mix (×20)=0.5 μl; Universal Master Mix=5 μl; cDNA=4.5 μl. The plates were then heat sealed using Abgene clear seal strong plastic heat seals, and then cycled and scanned using the […] under the following conditions: 95° C. for 10 minutes to activate the AmpliTaq GOLD, then 40 cycles of: 95° C. for 15 Sec (Denaturation), 60° C. for 60 […]). […] Quantitative PCR was performed using several primer/probe sets. […] We used both commercially available primer/probe sets (ABI Taqman pre-validated assays), using both available sets in the ABI database for tgfb1 and tgfb2, as well as the single available set for tgfb3. In addition, we used our own manual design probe/primer set for each of tgfb1, tgfb2 and tgfb3. For normalisation, we used TATA-binding protein (TBP) as the primary normalisation standard, with GAPDH as an alternative for confirmation, using ABI Taqman pre-validated probe/primer sets. […] Neither TBP nor GAPDH mRNA levels are affected by TGF-beta and are therefore equally suitable, however TBP was selected as the primary normalisation standard because the absolute level of mRNA in most cell types is similar to that of the TGF-beta isoforms, resulting in lower errors on calculating the ratio, and improving the power of the experiment. In all quantitative PCR experiments, several additional controls were included: firstly, a control for each sample is run with no reverse transcription to ensure the mRNA sample is not contaminated with genomic DNA (although the manual design probe/primer sets were all selected to cross an exon/exon boundary, ensuring no detectable amplicon is produced from genomic DNA templates). Secondly, a control reaction is run using serial 2-fold dilutions of a standard cDNA preparation (prepared from commercially available IMAGE clones). This control ensures that the results for the unknown samples are obtained in the linear range of the amplification process, and are therefore truly quantitative. Failure of either control led to the repeat of the entire experiment. Typically, the half maximal signal was obtained after 20-30 amplification cycles. […]

In a further assay the test system is TGF-beta activity. Briefly: TGF-beta activity estimated by smooth muscle cell proliferation (CPD with/without neutralising anti-TGF-beta antibody). In kind it is cell-based, human. To be noted: for TGF-beta activity: ratio of CPD in the absence vs presence of neutralising anti-TGF-beta antibody: 0 μM T, 72 hrs; for effect of lower doses on CPD and hence TGF-beta activity: doses below 10 μM Tamoxifen / below 100 μM aspirin. The procedure: The cells were cultured (37° C.; 5% CO2) in DMEM+20% foetal calf serum (FCS), and subcultured every 5 days at 1:2 dilution, using 0.02% trypsin/EDTA (Gibco).
For the experiments, the cells were subcultured into 12-well cluster plates at 1×10^5 cells/cm^2, and allowed to grow for 24 hrs. […] The cells were then incubated for either 24 hrs or 72 hrs depending on the experiment. All treatment conditions were established in triplicate.
Finally, TGF-beta activity was estimated by the direct effects on smooth muscle cell proliferation within the assay. For these experiments, the test agents were added, in triplicate, to cells both in the presence and absence of a neutralising antibody to TGF-beta (AB-100-NA; R&D Systems at 10 μg/ml, which is able to neutralise at least 25 ng/ml recombinant active TGF-beta1; R&D Systems). After 72 hrs incubation, the cells are washed and then released completely using 0.02% trypsin/EDTA (Gibco) at 37° C. for 10 mins, then counted manually using a haemocytometer. Importantly, the number of cells at 0 hrs must also be determined (using the same counting method, on a replicate set of three wells plated out specifically for the purpose). For each treatment condition, the TGF-beta-dependent inhibition of proliferation is expressed as the fold increase in the cumulative population doubling time in the absence of the neutralising antibody compared to the cumulative population doubling time in the presence of the neutralising antibody. […] Failure of either control led to the repeat of the experiment.

Here are results for two compounds from US20100099642A1, “TGF-BETA STIMULANT AND FURTHER AGENT TO REDUCE SIDE EFFECTS” (TCP Innovations Limited, priority 2007, published 2010).

Consider `CC(=O)Oc1ccccc1C(=O)O` [Aspirin, acetylsalicylic acid], for which the “Level of tgfb1 mRNA, estimated by qPCR” value is on record as 1.01 ± 0.04 fold-change with tgfb1 mRNA (10 μM A), 0.93 ± 0.11 fold-change with tgfb1 mRNA (33 μM A) and 1.06 ± 0.08 fold-change with tgfb1 mRNA (100 μM A). The “TGF-beta activity: ratio of CPD in the absence vs presence of neutralising anti-TGF-beta antibody” value is 1.05 ± 0.09 fold in the assay with TGF-beta activity (10 μM A); 1.13 ± 0.17 fold with TGF-beta activity (33 μM A); 1.25 fold in the assay on TGF-beta activity (100 μM A); 1.25 ± 0.06 fold in the assay with TGF-beta activity (100 μM A, listed as A). The “effect of lower doses on CPD and hence TGF-beta activity” value in the assay with TGF-beta activity is listed as “no statistically significant effect”.

Regarding `CC/C(=C(\c1ccccc1)c1ccc(OCCN(C)C)cc1)c1ccccc1` [Tamoxifen], the “Level of tgfb1 mRNA, estimated by qPCR” value in the assay on tgfb1 mRNA (3.3 μM T) is given as 0.95 ± 0.16 fold-change; in the assay with tgfb1 mRNA (10 μM T), 1.27 ± 0.09 fold-change; in the assay with tgfb1 mRNA (33 μM T, listed as T) it was 1.41 ± 0.08 fold-change; in the assay with tgfb1 mRNA (33 μM T, listed as TMX), “approximately 1.4 fold-change”. Moreover, the “effect of lower doses on CPD and hence TGF-beta activity” value in the assay with TGF-beta activity is recorded as “no statistically significant effect”.
